Assay [1] deals with intracellular amastigotes of L. (L.) infantum chagasi. The conditions noted are these: cited from earlier work.
For assay [2], the system named is strains of L. (L.) infantum chagasi. On the set-up: method as in PMID 23747751. The conditions noted are these: cited from earlier work.
For assay [3], the system named is amastigotes of L. (L.) amazonensis. On the set-up: method as in PMID 18660990. The conditions noted are these: ref 43; read-out: IC50 against amastigotes; cited from earlier work.
Assay [4] concerns intracellular amastigotes of L. (L.) infantum chagasi. The experiment in a line: Replication of intracellular amastigotes in infected peritoneal macrophages (phagocytic index). Format: cell-based, Leishmania (L.) infantum chagasi. As for the experimental part: […] […] The amastigote growth was assessed 24 h after the last drug addition, on 200 cells in Giemsa stained coverslips and expressed as phagocytic index = percent of infected macrophages x average number of intracellular amastigotes. […] All experiments with mice were reviewed and approved by the Animal Care and Use Committee of the Instituto de Biofísica Carlos Chagas Fo.-UFRJ (CAUAP-CONCEA, Brazil, IMPPG-016) and were performed according to the guidelines of the National Institutes of Health, USA. We made all efforts in order to minimize animal suffering.

The values that follow come from paper PMC4409337, “Immucillins Impair Leishmania (L.) infantum chagasi and Leishmania (L.) amazonensis Multiplication In Vitro” (PLoS ONE, 2015).

The term IC50 denotes the midpoint of a concentration-inhibition curve. A word on the EC50: it is the concentration at which the effect is half-maximal.

Read-outs that look alike come from different tables or passages of the source.

Consider Glucantime, for which the IC50 is 348 µM in assay [1] (ref 43, read-out: IC50 against replication of amastigotes); 1420 µM in assay [1] (ref 44, read-out: IC50 against intracellular amastigotes); 31.1 µM in assay [1] (ref 45, read-out: IC50 against intracellular amastigotes); 20 to 32.3 mM in assay [2] (Leishmania strains isolated from dogs); 0.43 to 5.76 mM in assay [2] (human strains of L. (L.) infantum chagasi); 62.6 µM in assay [3]. Moreover, the EC50 in assay [4] (drugs (0.5–10 μM) added at 0 h, incubation 24 h, linear interpolation, read-out: EC50 (CI 95%)) stood at 7.1 µM. Also, the “reduction in the number of intracellular amastigotes” value in assay [4] (single 10 μM dose at 0 h, compared to untreated controls) is 70%.
